Test results from patent publication US9290765B2, “Protection against endothelial barrier dysfunction through inhibition of the tyrosine kinase abl-related gene (ARG)” (VERENIGING VOOR CHRISTELIJK HOGER ONDERWIJS, …, priority 2011, dated 2016).

Experiments:
[1] = system: HUVECs; experiment: Electrical Cell-substrate Impedance Sensing (ECIS) of HUVEC monolayers, thrombin stimulation; type: cell-based, human
Experimental: (§1) For ECIS measurements, cells were trypsinized and seeded in 1:1 density on gelatine-coated ECIS arrays, each containing 8 wells with 10 gold electrodes/well (8 W10E, Applied Biophysics, Troy, N.Y., USA). Culture medium was refreshed 24 h after seeding, while experiments were performed 48 h after seeding. For pretreatment, designated pharmacological inhibitors or vector were dissolved in M199 supplemented with 1% HSA. After 90 min of pretreatment, thrombin was added directly to the cells for a final concentration of 1 U/mL. During stimulation impedance was measured at multiple frequencies to allow for calculation of resistance attributable to cell-cell adhesion (Rb) and resistance attributable to cell-matrix interaction (alpha). The absolute resistance was measured, while the relative resistance was calculated by normalization to the time point just before addition of the thrombin, to correct for baseline differences.

[2] = system: HUVECs; experiment: HRP passage across thrombin-stimulated HUVEC monolayers on porous filters; type: cell-based, human; details: for effect on thrombin-induced HRP passage: HUVECs
Experimental: (§2) Endothelial barrier function was evaluated with horse radish peroxidase (HRP) passage and Electrical Cell-substrate Impedance Sensing (ECIS). For measurement of HRP passage, confluent cells were seeded in 1:1 density on 0.33 cm^2 Costar polycarbonate filters, pore-size 3.0 μm (Corning, Lowell, Mass., USA) and grown to confluence in 4 or 5 days, with change of culture medium every other day. For pretreatment, pharmacological inhibitors or vector were dissolved in M199 supplemented with 1% human serum albumin (HSA, Sanquin CLB), and after removal of culture medium, solutions were added to the upper compartment of the filters during 60 min. For stimulation, pretreatment medium was changed for 1% HSA/M199 containing designated inhibitors, HRP 5 μg/mL (Sigma Aldrich) and thrombin 1 U/mL. 1% HSA/M199 was added to the lower compartment. At indicated time points samples were taken from the lower compartment; HRP concentration in samples was detected by measuring chemoluminiscence after addition of TMB/E (Upstate/Millipore).

[3] = system: human pulmonary microvascular endothelial cells (HPMVECs); experiment: HRP passage over HPMVEC monolayers, thrombin stimulation; type: cell-based; details: imatinib 10 μM, thrombin 1 U/mL
Experimental: as §2

[4] = system: human pulmonary microvascular endothelial cells (HPMVECs); experiment: ECIS of HPMVEC monolayers, thrombin stimulation; type: cell-based; details: imatinib 10 μM, thrombin 1 U/mL
Experimental: as §1

[5] = system: human foreskin microvascular endothelial cells (HFMVECs); experiment: ECIS of HFMVEC monolayers, thrombin stimulation; type: cell-based; details: imatinib 10 μM, thrombin 1 U/mL
Experimental: as §1

[6] = system: HUVECs; experiment: Immunofluorescence staining of VE-cadherin, β-catenin and F-actin in thrombin-stimulated HUVECs; type: cell-based, human
Experimental: Cells were seeded on glass coverslips coated with gelatine 1% and pretreated with glutaraldehyde 0.5% (Fluka, St. Gallen, Switzerland). Cells were seeded in 1:1 density and grown to confluence in 48-72 hours. For pretreatment, culture medium was changed to 1% HSA/M199, containing pharmacological inhibitors or vector. After 60 min of pretreatment, thrombin was added directly to the wells for a final concentration of 1 U/mL. At indicated time points, medium was removed and warm paraformaldehyde 2% (Sigma Aldrich) was added to the cells, while kept on ice for 15 min. Cells were permeabilized with Triton X-100 0.05% (Sigma Aldrich) in phosphate-buffered saline (PBS), and incubated overnight with primary antibodies for β-catenin (1:100), VE-cadherin (1:400) or Arg (1:150) in 0.1% HSA/PBS. Subsequently, cells were washed and incubated with FITC-labeled secondary antibodies (Invitrogen, Paisly, United Kingdom) and rhodamine/phalloidin (Invitrogen) for 1 h at room temperature. Cells were washed and sealed in Vectashield mounting medium containing DAPI (Vector Laboratories Inc., Burlingham, Calif., USA) for nuclear staining. Immunofluorescent imaging was performed with an Axiovert 200 Marianas™ inverted wide-field fluorescence microscope, using a 40× Zeiss air lens (NA 0.75) and a 63× Zeiss oil lens (NA 1.4). […]

[7] = system: RhoA; experiment: G-LISA RhoA Activity Assay in HUVEC lysates; type: cell-based, human; details: HUVECs; imatinib 10 μM; thrombin 1 U/mL
Experimental: After stimulation, cells were washed with ice-cold PBS and lysed with lysis buffer containing […] Tris/HCl pH 8.0, 0.15M NaCl, 0.09M KCl, 2 mM EDTA/NaOH pH 8.0, 5% Igepal, and 0.5% Triton X-100, further supplemented with PhosStop […] inhibitor (Roche Diagnostics, Mannheim, Germany), and Complete EDTA-free […] inhibitor (Roche Diagnostics). After centrifugation of the cell lysates, the supernatant was snap-frozen and stored at −80° C. Relative RhoA activity was determined with a G-LISA RhoA Activity Assay (Cytoskeleton Inc, Denver, Colo., USA), according to the manufacturers protocol.

[8] = HUVECs transfected with Arg siRNA, imatinib 10 μM, thrombin 1 U/mL
[9] = HUVECs, imatinib 10 μM, thrombin 1 U/mL

Compound	basal endothelial barrier function / basal endothelial resistance (ECIS) ([1]; HUVECs, no thrombin)	effect on thrombin-induced decrease in endothelial resistance (thrombin response, words) ([1]; HUVECs, thrombin 1 U/mL)	effect on thrombin-induced HRP passage ([2]; thrombin 1 U/mL)	HRP passage in Arg deficient cells, imatinib vs DMSO pretreatment [2, 8]	inhibition at 10 µM ([2]; Homo sapiens, HUVEC, read-out: inhibition of thrombin-induced HRP passage)	decrease in normalized resistance in Arg deficient cells, imatinib pretreatment [1, 8]	thrombin response in c-Abl deficient cells ([1]; HUVECs transfected with c-Abl siRNA, imatinib 10 μM, thrombin 1 U/mL)	maximal drop in electrical resistance ([1]; HUVECs, imatinib 10 μM, Y-27632 10 μM, thrombin 1 U/mL, FIGS. 2C and D)	maximal decrease in normalized Rb (cell-cell interaction) [1, 9]	thrombin-induced drop in cell-matrix interaction (alpha) [1, 9]	maximal decrease in normalized resistance ([1]; HUVECs, thrombin 1 U/mL, FIGS. 1B and 1C)	effect on thrombin-induced decrease in endothelial resistance (thrombin response, words) ([1]; HUVECs, thrombin 1 U/mL, listed as Imatinib)	thrombin-induced macromolecule passage [3]	maximal drop in endothelial resistance [4]	effects on Rb and alpha ([4]; compared with HUVECs)	thrombin-induced maximal drop in endothelial resistance [5]	thrombin-induced loss of VE-cadherin and β-catenin from the membrane ([6]; imatinib 10 μM, thrombin 30 min)	F-actin organization after thrombin ([6]; imatinib pretreated, thrombin 15 min)	thrombin-induced RhoA activity [7]
COc1cc2ncc(-c3ccccc3)nc2cc1OC [AG1296]	improved	did not inhibit	–	–	–	–	–	–	–	–	–	–	–	–	–	–	–	–	–
C[C@@H](N)[C@H]1CC[C@H](C(=O)Nc2ccncc2)CC1 [Y-27632]	–	reduced	reduced	–	–	–	–	–	–	–	–	–	–	–	–	–	–	–	–
Cc1ccc(NC(=O)c2ccc(CN3CCN(C)CC3)cc2)cc1Nc1nccc(-c2cccnc2)n1 [imatinib, 4-[(4-methyl-1-piperazinyl)methyl]-N-[4-methyl-3-[[(4-(3-pyridinyl)-2-pyrimidinyl]amino]-phenyl]benzamidemethane sulfonate]	–	reduced	reduced	significantly lower	35 to 44%	no additive effect	still attenuated	−0.44±0.02	−0.87±0.03	attenuation	−0.41±0.03	attenuated	reduced	attenuated	Comparable effects	attenuated	partly reversed	not organized in F-actin stress fibers	not affected
